23 compounds from patent US20050234046A1 (Kalypsys, Inc., priority 2004, published 2005) can be followed below.

Common to all, as to assay: Transient transfection (transactivation) assay in CV-1 cells, GAL4-PPAR chimera, luciferase reporter
Holding throughout (type): cell-based

One test concerns the target T1, PPAR alpha (Homo sapiens, UniProt Q07869).
T1 construct: expressed in transfected cells; host or cells: CV-1 cells
T1 sequence (Q07869 239-466 limits assumed): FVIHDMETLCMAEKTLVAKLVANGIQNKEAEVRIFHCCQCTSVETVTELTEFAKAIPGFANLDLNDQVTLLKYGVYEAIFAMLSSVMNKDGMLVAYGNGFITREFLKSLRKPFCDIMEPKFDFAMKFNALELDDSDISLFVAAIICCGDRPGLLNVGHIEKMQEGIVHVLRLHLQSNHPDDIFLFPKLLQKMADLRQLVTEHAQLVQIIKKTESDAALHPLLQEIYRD
The gist of the method: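 GAL4 DNA-binding domain fused to PPAR ligand binding domain, co-transfected into CV-1 cells with a luciferase reporter carrying four or five GAL4 sites. Replated cells in phenol-red free DME with 5% delipidated calf serum were treated with compound or 1% DMSO for 20-24 hours; luciferase read for EC50 and efficacy.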

In another test the target is T2, PPAR delta (Homo sapiens, UniProt Q03181).
T2 construct: expressed in transfected cells; host or cells: CV-1 cells
T2 sequence (Q03181 211-439 limits assumed): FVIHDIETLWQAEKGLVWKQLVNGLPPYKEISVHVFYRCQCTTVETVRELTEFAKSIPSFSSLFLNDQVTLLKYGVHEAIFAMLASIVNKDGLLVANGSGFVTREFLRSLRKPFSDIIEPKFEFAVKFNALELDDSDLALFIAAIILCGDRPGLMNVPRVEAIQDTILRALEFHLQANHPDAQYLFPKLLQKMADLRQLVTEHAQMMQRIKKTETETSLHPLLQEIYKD

Another test addresses T3, PPAR gamma (Homo sapiens, UniProt P37231).
T3 construct: expressed in transfected cells; host or cells: CV-1 cells
T3 sequence (P37231 238-503 limits assumed): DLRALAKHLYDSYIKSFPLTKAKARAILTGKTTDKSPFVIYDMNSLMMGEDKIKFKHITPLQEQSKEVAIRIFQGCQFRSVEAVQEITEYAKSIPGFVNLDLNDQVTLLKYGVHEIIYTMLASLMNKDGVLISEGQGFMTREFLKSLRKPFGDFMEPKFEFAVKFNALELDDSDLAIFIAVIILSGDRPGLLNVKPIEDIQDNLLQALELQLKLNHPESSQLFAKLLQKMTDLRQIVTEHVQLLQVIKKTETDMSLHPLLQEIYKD

SMILES strings stand for the structures.

As usually defined, the EC50 is the concentration giving half of the maximal effect. As to `Cc1cc(S(=O)(=O)N2[C@H](C)CN(c3ccc(C(F)(F)F)cn3)C[C@@H]2C)cc(CC(=O)O)c1Br` [Example 197, {2-Bromo-5-[2,6-dimethyl-4-(5-trifluoromethyl-pyridin-2-yl)-piperazine-1-sulfonyl]-3-methyl-phenyl}-acetic acid], the results for the 50% effective concentration (EC50) on PPAR alpha, on PPAR delta and at PPAR gamma were more than 100 µM, less than 5 µM and 5 to 100 µM, respectively.
For `Cc1cc(S(=O)(=O)N2[C@H](C)CN(c3ccc(OC(F)(F)F)cc3)C[C@@H]2C)cc(CC(=O)O)c1Br` [Example 198, {2-Bromo-5-[2,6-dimethyl-4-(4-trifluoromethoxy-phenyl)-piperazine-1-sulfonyl]-3-methyl-phenyl}-acetic acid] the same measures were 5 to 100 µM, less than 5 µM and 5 to 100 µM.
For `O=C(O)Cc1cc(Br)cc(S(=O)(=O)N2CCN(c3ccc(C(F)(F)F)cn3)CC2)c1` [Example 199, {3-Bromo-5-[4-(5-trifluoromethyl-pyridin-2-yl)-piperazine-1-sulfonyl]-phenyl}acetic acid], the EC50 on PPAR alpha was 5 to 100 µM; on PPAR delta, less than 5 µM; at PPAR gamma, 5 to 100 µM.
In the case of `C[C@@H]1CN(c2ccc(OC(F)(F)F)cc2)C[C@H](C)N1S(=O)(=O)c1cc(Br)cc(CC(=O)O)c1` [Example 200, {3-Bromo-5-[2,6-dimethyl-4-(4-trifluoromethoxy-phenyl)-piperazine-1-sulfonyl]-phenyl}-acetic acid], the results for the EC50 on PPAR alpha, on PPAR delta and at PPAR gamma were 5 to 100 µM, less than 5 µM and 5 to 100 µM, respectively.
Take `O=C(O)Cc1cc(Br)cc(S(=O)(=O)N2CCN(c3ccc(OC(F)(F)F)cc3)CC2)c1` [Example 201, {3-Bromo-5-[4-(4-trifluoromethoxy-phenyl)-piperazine-1-sulfonyl]-phenyl}-acetic acid]: the EC50 at PPAR alpha was 5 to 100 µM; at PPAR delta, less than 5 µM; at PPAR gamma, 5 to 100 µM.
On to `O=C(O)Cc1cc(C(F)(F)F)cc(S(=O)(=O)N2CCN(c3ccc(C(F)(F)F)cc3)CC2)c1` [Example 202, {3-Trifluoromethyl-5-[4-(4-trifluoromethyl-phenyl)-piperazine-1-sulfonyl]-phenyl}-acetic acid], for which the concentration giving a half-maximal response (EC50) at PPAR alpha is 5 to 100 µM; at PPAR delta it was less than 5 µM; at PPAR gamma, 5 to 100 µM.
For the compound `O=C(O)Cc1cc(C(F)(F)F)cc(S(=O)(=O)N2CCN(c3ccc(C(F)(F)F)cn3)CC2)c1` [Example 203, {3-Trifluoromethyl-5-[4-(5-trifluoromethyl-pyridin-2-yl)-piperazine-1-sulfonyl]-phenyl}-acetic acid], the concentration for a half-maximal effect (EC50) was 5 to 100 µM at PPAR alpha, less than 5 µM on PPAR delta and 5 to 100 µM on PPAR gamma.
With `C[C@@H]1CN(c2ccc(C(F)(F)F)cn2)C[C@H](C)N1S(=O)(=O)c1cc(CC(=O)O)cc(C(F)(F)F)c1` [Example 204, {3-[2,6-Dimethyl-4-(5-trifluoromethyl-pyridin-2-yl)-piperazine-1-sulfonyl]-5-trifluoromethyl-phenyl}-acetic acid], the figures for the EC50 at PPAR alpha, on PPAR delta and on PPAR gamma were more than 100 µM, less than 5 µM and more than 100 µM, respectively.
For `Cc1ccc(S(=O)(=O)N2CCN(c3ccc(C(F)(F)F)cn3)C(C(F)(F)F)C2)cc1CC(=O)O` (stereo not drawn) [Example 205, {2-Methyl-5-[3-trifluoromethyl-4-(5-trifluoromethyl-pyridin-2-yl)-piperazine-1-sulfonyl]-phenyl}-acetic acid], the EC50 at PPAR alpha was 5 to 100 µM; at PPAR delta, less than 5 µM; at PPAR gamma, 5 to 100 µM.
For the compound `COc1ccc(S(=O)(=O)N2[C@H](C)CN(c3ccc(OC(F)(F)F)cn3)C[C@@H]2C)cc1CC(=O)O` [Example 206, {5-[2,6-Dimethyl-4-(5-trifluoromethoxy-pyridin-2-yl)-piperazine-1-sulfonyl]-2-methoxy-phenyl}-acetic acid], the figures for the EC50 on PPAR alpha, at PPAR delta and at PPAR gamma were more than 100 µM, less than 5 µM and 5 to 100 µM, respectively.
For the compound `O=C(O)Cc1cc(S(=O)(=O)N2CCN(c3ccc(C(F)(F)F)cn3)CC2)ccc1O` [Example 207, {5-[4-(5-trifluoromethyl-pyridin-2-yl)-piperazine-1-sulfonyl]-2-hydroxy-phenyl}-acetic acid], the figures for the EC50 at PPAR alpha, at PPAR delta and at PPAR gamma were 5 to 100 µM, less than 5 µM and 5 to 100 µM, respectively.
On to `O=C(O)Cc1cc(S(=O)(=O)N2CCN(c3ccc(C(F)(F)F)cc3)CC2)ccc1O` [Example 208, {5-[4-(4-trifluoromethyl-phenyl)-piperazine-1-sulfonyl]-2-hydroxy-phenyl}-acetic acid], for which the figures for the EC50 on PPAR alpha, at PPAR delta and at PPAR gamma were 5 to 100 µM, less than 5 µM and more than 100 µM, respectively.
In the same order, the values of `C[C@@H]1CN(c2ccc(OC(F)(F)F)cc2)C[C@H](C)N1S(=O)(=O)c1ccc(O)c(CC(=O)O)c1` [Example 209, {5-[2,6-Dimethyl-4-(4-trifluoromethoxy-phenyl)-piperazine-1-sulfonyl]-2-hydroxy-phenyl}-acetic acid] are more than 100 µM, 5 to 100 µM and more than 100 µM.
In the same order, the values of `O=C(O)CSCc1cccc(S(=O)(=O)N2CCN(c3ccc(C(F)(F)F)cc3)CC2)c1` [Example 210, {3-[4-(4-Trifluoromethyl-phenyl)-piperazine-1-sulfonyl]-benzylsulfanyl}-acetic acid] are 5 to 100 µM, 5 to 100 µM and 5 to 100 µM.
As for `O=C(O)COCc1cccc(S(=O)(=O)N2CCN(c3ccc(C(F)(F)F)cc3)CC2)c1` [Example 211, {3-[4-(4-Trifluoromethyl-phenyl)-piperazine-1-sulfonyl]-benzyloxy}-acetic acid], the EC50 on PPAR alpha, at PPAR delta and on PPAR gamma was more than 100 µM in each case.
Turning to `CC(C)(OCc1cccc(S(=O)(=O)N2CCN(c3ccc(C(F)(F)F)cc3)CC2)c1)C(=O)O` [Example 212, 2-Methyl-2-{3-[4-(4-trifluoromethyl-phenyl)-piperazine-1-sulfonyl]-benzyloxy}-propionic acid], the values for the EC50 at PPAR alpha, on PPAR delta and at PPAR gamma were 5 to 100 µM, more than 100 µM and 5 to 100 µM, respectively.
With `Cc1cc(CC(=O)O)cc(S(=O)(=O)N2CCN(c3ccc(OC(F)(F)F)cc3)C[C@@H]2C)c1` [Example 213, {3-Methyl-5-[2-(S)-methyl-4-(4-trifluoromethoxy-phenyl)-piperazine-1-sulfonyl]phenyl}-acetic acid], the EC50 at PPAR alpha is 5 to 100 µM; at PPAR delta it was less than 5 µM; at PPAR gamma it was 5 to 100 µM.
For `Cc1ccc(S(=O)(=O)N2CCN(c3ccc(OC(F)(F)F)cc3)C[C@@H]2C)cc1CC(=O)O` [Example 214, {2-Methyl-5-[2-(S)-methyl-4-(4-trifluoromethoxy-phenyl)-piperazine-1-sulfonyl]-phenyl}-acetic acid], the EC50 was 5 to 100 µM on PPAR alpha, less than 5 µM on PPAR delta and 5 to 100 µM at PPAR gamma.
Consider `C[C@H]1CN(c2ccc(C(F)(F)F)c(F)c2)CCN1S(=O)(=O)c1cccc(CC(=O)O)c1` [Example 215, {3-[4-(3-Fluoro-4-trifluoromethyl-phenyl)-2-(S)-methyl-piperazine-1-sulfonyl]-phenyl}-acetic acid], for which the half-maximal effective concentration (EC50) at PPAR alpha was 5 to 100 µM; at PPAR delta, less than 5 µM; on PPAR gamma, 5 to 100 µM.
As to `Cc1cc(CC(=O)O)cc(S(=O)(=O)N2CCN(c3ccc(C(F)(F)F)c(F)c3)C[C@@H]2C)c1` [Example 216, {3-[4-(3-Fluoro-4-trifluoromethyl-phenyl)-2-(S)-methyl-piperazine-1-sulfonyl]-5-methyl-phenyl}-acetic acid], the results for the EC50 on PPAR alpha, on PPAR delta and on PPAR gamma were 5 to 100 µM, less than 5 µM and 5 to 100 µM, respectively.
Take `Cc1ccc(S(=O)(=O)N2CCN(c3ccc(C(F)(F)F)c(F)c3)C[C@@H]2C)cc1CC(=O)O` [Example 217, {5-[4-(3-Fluoro-4-trifluoromethyl-phenyl)-2-(S)-methyl-piperazine-1-sulfonyl]-2-methyl-phenyl}-acetic acid]: the EC50 is 5 to 100 µM on PPAR alpha, less than 5 µM at PPAR delta and 5 to 100 µM on PPAR gamma.
With `C[C@H]1CN(S(=O)(=O)c2cccc(CC(=O)O)c2)CCN1c1ccc(C(F)(F)F)c(F)c1` [Example 218, {3-[4-(3-Fluoro-4-trifluorometbyl-phenyl)-3-(S)-methyl-piperazine-1-sulfonyl]-phenyl}-acetic acid], the concentration giving a half-maximal response (EC50) on PPAR alpha was less than 5 µM; on PPAR delta, less than 5 µM; at PPAR gamma, 5 to 100 µM.
Turning to `Cc1cc(CC(=O)O)cc(S(=O)(=O)N2CCN(c3ccc(C(F)(F)F)c(F)c3)[C@@H](C)C2)c1` [Example 219], the 50% effective concentration (EC50) on PPAR alpha is 5 to 100 µM; on PPAR delta it was less than 5 µM; at PPAR gamma, 5 to 100 µM.
